Laboratory results as given in patent US20150246946A1, “PEPTIDES AND METHODS FOR TREATING CANCER” (AGENCY FOR SCIENCE, TECHNOLOGY AND RESEARCH, priority 2012, published 2015).

How the values were obtained:
HCT-116 p53−/− cells [1] = test: cell viability (CellTiter-Glo), HCT-116 p53−/−; assay type: cell-based; conditions: 24 hours
Text: (§1) Data was normalized to vehicle-treated controls.

[2] = tested on: p53 responsive LacZ reporter gene in T22 cell line; test: T22 p53 β-galactosidase based reporter assay; assay type: cell-based, murine
Method: T22 cells, which were stably transfected with a p53 responsive […] reporter, were seeded into 96-well plate at a cell density of 8000 cells per well. […] Measurements were carried out using a Safire II multiplate reader (TECAN). Experiments were carried out independently twice.

SJSA-1 cell line = test: caspase 3/7 activity in SJSA-1 cell line; conditions: SJSA-1 cells, titration
Mdm4 (1-125) = target: T1, Mdm4 (1-125) (Homo sapiens, UniProt O15151); test: competitive fluorescence polarization/anisotropy, apparent Kd against Mdm4; assay type: binding
T1 construct: Mdm4 (1-125) were ligated into the GST fusion expression vector pGEX-6P-1; GST (N, cleaved yes); made in house; host or cells: E. coli BL21 DE3
T1 sequence (O15151 1-125): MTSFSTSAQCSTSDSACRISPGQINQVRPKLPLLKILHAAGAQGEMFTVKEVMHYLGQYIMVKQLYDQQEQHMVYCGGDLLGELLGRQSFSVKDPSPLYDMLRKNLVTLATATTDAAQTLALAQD
Method: (§2) The cells expressing the GST fusion constructs were grown in LB medium at 37° C. to an OD600 of ˜0.6 and induction was started with 1 mM IPTG and carried out overnight at room temperature. Cells were harvested by centrifugation and the cell pellets were re-suspended in 50 mM Tris pH 8.0, 10% sucrose and were then sonicated. The sonicated sample was centrifuged for 60 mins at 17,000 g at 4° C. […] The column was then further washed by 6 volumes of wash buffer. Mdm2 and Mdm4 were then purified from the column by cleavage with Precission (GE Lifesciences) protease. 10 units of precission protease, in one column volume of PBS with 1 mM DTT buffer, were injected onto the column. The cleavage reaction was allowed to proceed overnight at 4° C. The cleaved protein was then eluted of the column with wash buffer. Protein fractions were analyzed with SDS page gel and concentrated using a Centricon (3.5 kDa MWCO) concentrator, Millipore. Mdm2 and Mdm4 protein samples were then dialyzed into a buffer solution containing 20 mM Bis-Tris, pH 6.5, 0.05M NaCl with 1 mM DTT and loaded onto a monoS column pre-equilibrated in buffer A (20 mM Bis-Tris, pH 6.5, 1 mM DTT). The column was then washed in 6 column volumes of buffer A and bound protein was eluted with a linear gradient of 1M NaCL over 25 column volumes. Protein fractions were analyzed with SDS page gel and concentrated using a Centricon (3.5 kDa MWCO) concentrator from Millipore.
(§3) Apparent Kd values were determined for a variety of molecules via competitive fluorescence anisotropy experiments. […] The competing molecules were then titrated against complex of the FAM labelled peptide and protein. Apparent Kd values were determined by fitting the experimental data to the equations shown below:
(§4) [L]st and [L]t denote labelled ligand and total unlabelled ligand input concentrations, respectively. Kd2 is the dissociation constant of the interaction between the unlabelled ligand and the protein. In all competitive types of experiments, it is assumed that [P]t>[L]st, otherwise considerable amounts of free labelled ligand would always be present and would interfere with measurements. […] The FAM-labelled peptide were dissolved in DMSO at 1 mM and diluted into experimental buffer. Readings were carried out with a Envision Multilabel Reader (PerkinElmer). […] All titrations were carried out in triplicate. Curve-fitting was carried out using Prism 4.0 (GraphPad).

[3] = tested on: thymocytes from p53 wild-type mice; test: cell viability in mouse thymocytes, p53 wild-type; assay type: cell-based; conditions: p53 wild-type vs p53 deficient mice, 24 hours, annexin V/PI
Method: Thymocytes were isolated from wild-type and p53^+/−mice (age 4-9 weeks) and kept in a PBS/FCS (2%) solution (ref). Cells were plated at a density of 1×10^6 per well in 24-well plates in medium [DMEM/Hepes (25 mM, pH 7.2), 5% FCS, penicillin/streptomycin, glutamine] and incubated at 37° C. with 2% C02. […] Cell were then analysed for viability using this procedure, cells were washed with cold PBS, and stained with FITC-labeled annexin V antibody (PharMingen) and PI (Sigma). The relative amounts of apoptotic cells were determined by binding of annexin V and subsequent fluorescence-activated cell sorter analysis. All values were normalized to the number of cells remaining viable in vehicle (1% DMSO) treated cultures derived from the same animal stained simultaneously. Data are representatives of n=4 independent experiments.

p53 null thymocytes = test: cell viability in mouse thymocytes, p53 null; assay type: cell-based, mice; conditions: high doses, 24 hours, annexin V/PI
[4] = target: T2, interaction of p53 with Mdm2 in living BHK cells (Homo sapiens, UniProt Q00987); test: F2H co-localization assay p53:Mdm2; assay type: cell-based; conditions: 0 to 50 μM
T2 construct: the prey is a fusion of either Mdm2 (7-134) or Mdm4 (1-129) with RFP; host or cells: transgenic BHK cells with lac operator repeats

HCT-116 p53+/+ cells [5] = test: cell viability (CellTiter-Glo), HCT-116 p53+/+; assay type: cell-based; conditions: 24 hours
Text: as §1

HCT-116 p53+/+ cells [6] = test: Caspase-Glo 3/7 assay, HCT-116 p53+/+; assay type: cell-based; conditions: 24 hours
Text: as §1

HCT116 p53+/+ cells = test: cell cycle analysis (propidium iodide flow cytometry); assay type: cell-based; conditions: 24 hours
Method: Three hundred fifty thousand cells were then seeded per well in 6-well plates containing incubated overnight. […] A 1% DMSO vehicle control treatment was also carried out. Cells were washed with PBS and then detached from the plate surface by trypsinisation. […] Cells were spun down and resuspended with PI-staining solution containing RNase A. Cells were analyzed using an LSR II (Becton Dickinson).

Mdm2 (1-125) = target: T3, Mdm2 (1-125) (Homo sapiens, UniProt Q00987); test: competitive fluorescence polarization/anisotropy, apparent Kd against Mdm2; assay type: binding; conditions: stapled vs unstapled peptide
T3 construct: Mdm2 (1-125) and Mdm4 (1-125) were ligated into the GST fusion expression vector pGEX-6P-1; GST (N, cleaved yes); made in house; host or cells: E. coli BL21 DE3
Method: as §2, §3, §4

[7] = target: T4, interaction of p53 with Mdm4 in living BHK cells (Homo sapiens, UniProt O15151); test: F2H co-localization assay p53:Mdm4; assay type: cell-based; conditions: 0 to 50 μM
T4 construct: Mdm4 (1-129) with RFP; host or cells: transgenic BHK cells with lac operator repeats
T4 sequence (O15151 1-129): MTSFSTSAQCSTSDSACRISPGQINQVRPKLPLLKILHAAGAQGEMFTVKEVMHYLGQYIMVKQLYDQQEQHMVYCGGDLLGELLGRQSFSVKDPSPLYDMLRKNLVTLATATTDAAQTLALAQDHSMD

HCT-116 p53−/− cells [8] = test: Caspase-Glo 3/7 assay, HCT-116 p53−/−; assay type: cell-based; conditions: 24 hours
Text: as §1

HCT-116 p53+/+ cells [9] = test: HCT-116 Western blot analysis; assay type: cell-based; conditions: 6 hours, with or without fetal calf serum, FIG. 2d
Method: Cells were treated with various compounds/vehicle controls at the time points and concentrations indicated also in acoy's media with 10% FBS. Cells were rinsed with PBS and then harvested in 200 μl of 1× NuPAGE LDS sample buffer supplied by Invitrogen (NP0008). Samples were then sonicated, heated to 90° C. for 5 mins, sonicated twice for 10 s and centrifuged at 13, 000 rpm for 5 minutes. Protein concentrations were measured by BCA assay (Pierce). Western blots were then performed using antibodies against actin (AC-15, Sigma) as a loading control, p21 (118 mouse monoclonal), Mdm2 (4B2 mouse monoclonal) and p53 (DO-1 mouse monoclonal).

T3 sequence (Q00987 1-125): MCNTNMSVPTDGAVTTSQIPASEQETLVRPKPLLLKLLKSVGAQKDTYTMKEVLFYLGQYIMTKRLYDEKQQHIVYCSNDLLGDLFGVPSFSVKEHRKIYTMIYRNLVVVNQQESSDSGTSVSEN
T2 sequence (Q00987 7-134): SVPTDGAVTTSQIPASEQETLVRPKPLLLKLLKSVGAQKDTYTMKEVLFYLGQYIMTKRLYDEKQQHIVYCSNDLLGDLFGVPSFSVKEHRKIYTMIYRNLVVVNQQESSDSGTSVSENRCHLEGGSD

## CC(=O)N[C@H](C(=O)N[C@@H](CO)C(=O)N[C@@H](Cc1ccccc1)C(=O)N[C@]1(C)CCCCCCC=CCCC[C@@](C)(C(N)=O)NC(=O)[C@H](CC(C)C)NC(=O)[C@H](CC(C)C)NC(=O)[C@H](C)NC(=O)[C@H](Cc2c[nH]c3ccccc23)NC(=O)[C@H](Cc2ccc(O)cc2)NC(=O)[C@H](CCC(=O)O)NC1=O)[C@@H](C)O [sMTide-02, Ac-^1TSFXEYWALLX^11-NH2]
HCT-116 p53−/− cells [1]
  cell viability: no significant decrease in the viability
[2]; 18 hours, DMEM with 10% FBS
  p53 transcriptional activity in T22 p53 reporter assay: strongest p53 transcriptional response ever seen in this assay
[2]; with 20 μM PSC-883 vs without
  effect of PGP inhibitor PSC-883 on p53 response in the reporter assay: significantly improved the sensitivity of the p53 response
SJSA-1 cell line
  induction of caspase 3/7 activity: induced caspase 3/7 activity at substantially higher concentrations than nutlin
Mdm4 (1-125)
  Kd: 45.7 ± 7.65 nM
Mdm4 (1-125); stapled vs unstapled peptide
  increase in Kd against Mdm4 in comparison to unstapled counterpart: 2 fold
[3]
  cell death in thymocytes: induced cell death in a p53-dependent manner
p53 null thymocytes
  apoptosis in p53 null thymocytes: did not
[4]
  disruption of p53 interaction with Mdm2 (F2H): dissociate Mdm2 from p53
HCT-116 p53+/+ cells [5]
  cell viability: no significant decrease in the viability
HCT-116 p53+/+ cells [6]
  caspase 3/7 activity: negligible caspase 3/7 activity
HCT116 p53+/+ cells; high concentration (FIG. 5)
  cell cycle distribution at high concentrations: G2 arrest
HCT116 p53+/+ cells; low concentration (FIG. 4c)
  cell cycle distribution at low concentrations: G2 arrest
Mdm2 (1-125)
  increase in Kd against Mdm2 in comparison to unstapled counterpart: negligible increase
[7]
  disruption of p53 interaction with Mdm4 (F2H): greater potency against Mdm4
HCT-116 p53−/− cells [8]
  caspase 3/7 activity: negligible caspase 3/7 activity
HCT-116 p53+/+ cells [9]
  effect of serum on activity: significantly improved potency in the absence of serum
